We go through 21 molecules from ChEMBL document CHEMBL4422634, “Discovery of novel anti-angiogenesis agents. Part 9: Multiplex inhibitors suppressing compensatory activations of RTKs” (Eur J Med Chem, 2019).

One assay has as its target Angiopoietin-1 receptor (Homo sapiens, UniProt Q02763). Description: Inhibition of Tie-2 (unknown origin) after 1 hrs by ADP-Glo luminescence assay.
The target in a further assay is T1, Ephrin type-B receptor 4 (Homo sapiens, UniProt P54760).
T1 sequence (P54760 whole entry): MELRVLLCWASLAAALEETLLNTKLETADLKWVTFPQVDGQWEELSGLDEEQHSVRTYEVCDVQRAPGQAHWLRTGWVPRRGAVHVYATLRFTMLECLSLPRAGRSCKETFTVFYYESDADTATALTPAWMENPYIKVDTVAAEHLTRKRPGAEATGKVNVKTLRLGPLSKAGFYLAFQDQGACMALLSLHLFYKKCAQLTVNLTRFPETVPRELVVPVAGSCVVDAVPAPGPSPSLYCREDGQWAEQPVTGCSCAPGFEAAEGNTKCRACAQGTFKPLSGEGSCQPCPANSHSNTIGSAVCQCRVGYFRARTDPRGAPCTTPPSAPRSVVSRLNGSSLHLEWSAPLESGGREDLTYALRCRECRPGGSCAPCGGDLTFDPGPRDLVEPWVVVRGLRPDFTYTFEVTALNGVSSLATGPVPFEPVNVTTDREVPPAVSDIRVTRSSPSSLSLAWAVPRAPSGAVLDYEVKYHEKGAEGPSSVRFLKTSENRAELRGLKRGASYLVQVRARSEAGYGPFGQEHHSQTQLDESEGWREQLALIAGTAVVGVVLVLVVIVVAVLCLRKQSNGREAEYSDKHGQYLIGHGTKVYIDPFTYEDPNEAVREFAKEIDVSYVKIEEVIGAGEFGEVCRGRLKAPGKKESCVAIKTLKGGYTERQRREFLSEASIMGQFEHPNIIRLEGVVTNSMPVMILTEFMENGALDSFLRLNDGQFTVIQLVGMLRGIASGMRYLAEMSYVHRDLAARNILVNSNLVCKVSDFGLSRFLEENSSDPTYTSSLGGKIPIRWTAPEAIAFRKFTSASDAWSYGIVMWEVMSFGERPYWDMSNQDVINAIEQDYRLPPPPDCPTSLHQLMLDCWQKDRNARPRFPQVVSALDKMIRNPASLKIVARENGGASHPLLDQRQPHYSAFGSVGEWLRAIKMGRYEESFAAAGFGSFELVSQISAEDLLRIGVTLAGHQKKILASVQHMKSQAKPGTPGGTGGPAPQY
Kind of assay: Inhibition of EphB4 (unknown origin) after 1 hrs by ADP-Glo luminescence assay. (In general: ADP-Glo first removes unused ATP, then detects ADP through luciferase.)

In a further assay the test system is EA.hy 926. Description: Antiproliferative activity against human EAhy926 cells assessed as reduction in cell viability after 24 hrs by CCK-8 assay. The following applies: EA.hy 926, 24 h. On the technique in general: Tetrazolium dyes change colour on reduction, which living cells bring about.
In the next assay the test system is MCF7. Kind of assay: Antiproliferative activity against human MCF7 cells after 48 hrs by MTT assay. The following applies: MCF7, 48 h.
The subject of the next assay is A549. Description: Antiproliferative activity against human A549 cells after 48 hrs by MTT assay. The following applies: A549, 48 h.
The next assay concerns A-431. Description: Antiproliferative activity against human A431 cells after 48 hrs by MTT assay. The following applies: A-431, 48 h.
For the next assay, the system named is HeLa. Description: Antiproliferative activity against human HeLa cells after 48 hrs by MTT assay.
Another assay concerns LoVo. Description: Antiproliferative activity against human LoVo cells after 48 hrs by MTT assay.
The target in assay [1] is Vascular endothelial growth factor receptor 2 (Homo sapiens, UniProt P35968). Description: Inhibition of VEGFR-2 (unknown origin) after 1 hrs by ADP-Glo luminescence assay.
Sequence of Vascular endothelial growth factor receptor 2 (P35968 whole entry): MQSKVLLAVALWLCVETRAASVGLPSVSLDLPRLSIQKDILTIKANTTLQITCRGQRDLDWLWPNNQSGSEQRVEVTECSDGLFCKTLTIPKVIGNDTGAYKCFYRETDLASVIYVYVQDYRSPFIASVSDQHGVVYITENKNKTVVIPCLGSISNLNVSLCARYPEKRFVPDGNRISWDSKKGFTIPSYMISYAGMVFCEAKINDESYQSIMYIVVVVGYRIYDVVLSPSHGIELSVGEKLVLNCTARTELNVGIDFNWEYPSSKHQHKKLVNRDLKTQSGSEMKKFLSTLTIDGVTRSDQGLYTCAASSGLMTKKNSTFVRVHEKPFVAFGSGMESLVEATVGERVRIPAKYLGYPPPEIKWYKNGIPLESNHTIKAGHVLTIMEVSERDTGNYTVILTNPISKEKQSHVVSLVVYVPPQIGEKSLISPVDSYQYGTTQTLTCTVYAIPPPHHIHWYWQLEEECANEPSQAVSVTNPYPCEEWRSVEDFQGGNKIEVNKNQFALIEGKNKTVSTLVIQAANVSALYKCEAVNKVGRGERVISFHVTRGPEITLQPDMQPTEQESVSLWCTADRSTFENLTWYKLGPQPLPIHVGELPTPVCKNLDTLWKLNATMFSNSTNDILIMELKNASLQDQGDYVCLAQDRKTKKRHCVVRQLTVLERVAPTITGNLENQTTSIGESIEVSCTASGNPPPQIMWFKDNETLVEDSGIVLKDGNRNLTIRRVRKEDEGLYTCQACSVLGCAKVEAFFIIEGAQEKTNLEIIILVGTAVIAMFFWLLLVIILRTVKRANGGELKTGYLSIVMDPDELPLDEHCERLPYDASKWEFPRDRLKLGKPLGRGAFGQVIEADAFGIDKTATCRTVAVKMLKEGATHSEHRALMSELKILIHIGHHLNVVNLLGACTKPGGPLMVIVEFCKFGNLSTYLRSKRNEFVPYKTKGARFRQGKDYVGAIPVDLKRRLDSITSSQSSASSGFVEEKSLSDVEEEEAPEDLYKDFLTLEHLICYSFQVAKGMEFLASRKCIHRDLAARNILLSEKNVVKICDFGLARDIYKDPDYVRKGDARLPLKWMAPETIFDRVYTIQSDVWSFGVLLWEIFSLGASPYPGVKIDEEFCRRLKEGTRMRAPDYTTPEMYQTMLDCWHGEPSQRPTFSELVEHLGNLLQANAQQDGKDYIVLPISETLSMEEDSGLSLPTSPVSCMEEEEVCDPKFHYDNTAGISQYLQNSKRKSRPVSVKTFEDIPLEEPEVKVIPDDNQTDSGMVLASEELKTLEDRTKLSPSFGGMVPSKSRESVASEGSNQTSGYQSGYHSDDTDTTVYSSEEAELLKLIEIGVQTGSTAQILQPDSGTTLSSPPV

Sequence of Angiopoietin-1 receptor (Q02763 whole entry): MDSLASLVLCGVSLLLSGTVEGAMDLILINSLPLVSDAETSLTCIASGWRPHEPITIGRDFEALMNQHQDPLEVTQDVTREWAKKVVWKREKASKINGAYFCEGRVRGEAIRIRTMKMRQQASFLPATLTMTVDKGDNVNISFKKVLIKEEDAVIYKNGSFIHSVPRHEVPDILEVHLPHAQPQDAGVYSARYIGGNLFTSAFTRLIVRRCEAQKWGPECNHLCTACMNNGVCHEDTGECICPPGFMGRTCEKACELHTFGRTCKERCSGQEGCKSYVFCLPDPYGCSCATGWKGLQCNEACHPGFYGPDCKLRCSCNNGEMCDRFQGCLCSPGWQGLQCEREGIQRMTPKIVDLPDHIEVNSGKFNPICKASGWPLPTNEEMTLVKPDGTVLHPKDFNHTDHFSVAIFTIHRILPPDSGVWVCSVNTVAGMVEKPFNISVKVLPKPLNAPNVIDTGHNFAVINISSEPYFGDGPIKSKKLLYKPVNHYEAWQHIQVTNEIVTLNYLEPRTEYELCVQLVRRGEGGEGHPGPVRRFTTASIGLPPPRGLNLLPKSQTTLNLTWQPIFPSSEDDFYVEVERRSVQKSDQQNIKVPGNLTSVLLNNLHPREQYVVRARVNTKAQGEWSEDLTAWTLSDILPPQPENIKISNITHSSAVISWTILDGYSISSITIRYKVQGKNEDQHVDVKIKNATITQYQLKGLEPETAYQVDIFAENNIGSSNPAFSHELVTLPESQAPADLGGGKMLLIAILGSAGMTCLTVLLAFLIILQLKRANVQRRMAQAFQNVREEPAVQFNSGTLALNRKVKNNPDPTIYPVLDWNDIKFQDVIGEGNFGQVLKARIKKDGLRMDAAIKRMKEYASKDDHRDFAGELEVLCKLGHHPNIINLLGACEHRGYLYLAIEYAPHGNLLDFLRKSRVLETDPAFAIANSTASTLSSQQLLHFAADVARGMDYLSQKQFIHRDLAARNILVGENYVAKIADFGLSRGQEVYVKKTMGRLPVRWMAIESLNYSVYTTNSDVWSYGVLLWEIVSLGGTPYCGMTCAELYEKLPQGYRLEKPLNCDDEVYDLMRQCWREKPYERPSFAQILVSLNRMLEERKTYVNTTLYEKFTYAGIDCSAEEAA

Regarding `Cn1cc(-c2ccc(Cn3cc(-c4cccc(NC(=O)C5CC5)c4)nn3)cc2)cn1`, the values for the IC50 against Angiopoietin-1 receptor, on Ephrin type-B receptor 4 and in the assay with EA.hy 926 were 0.00082 µM, > 1 µM and 484 µM, respectively.

`FC(F)(F)c1ccc(-c2cn(Cc3ccc(-c4cncnc4)cc3)nn2)cc1`: the figures for the half-maximal inhibitory concentration (IC50) on Angiopoietin-1 receptor, at Ephrin type-B receptor 4 and with EA.hy 926 were > 1 µM, > 1 µM and 46.8 µM, respectively.

As for `Cn1cc(-c2ccc(Cn3cc(-c4cccc(N)c4)nn3)cc2)cn1`, the IC50 (commonly the point on the concentration scale where inhibition reaches its midpoint) on Angiopoietin-1 receptor is > 1 µM; against Ephrin type-B receptor 4, > 1 µM; in the assay with EA.hy 926, 22 µM.

In the case of `Cc1cccc(-c2cn(Cc3ccc(-c4cncnc4)cc3)nn2)c1`, the half-inhibitory concentration (IC50) on Angiopoietin-1 receptor was found to be 0.0137 µM; with EA.hy 926, 142 µM.

Consider `Cn1cc(-c2ccc(Cn3cc(-c4ccccc4F)nn3)cc2)cn1`, for which the IC50 was 0.00269 µM on Angiopoietin-1 receptor; 1.9 µM in the assay with EA.hy 926; 15.6 µM with MCF7; 1.2 µM in the assay on A549; 7.29 µM in the assay on A-431; 27.8 µM in the assay with HeLa. This molecule also came in with an IC50 in the assay with LoVo of 1.32 µM.

In the case of `Cc1cccc(-c2cn(Cc3ccc(-c4cnn(C)c4)cc3)nn2)c1`, the results for the IC50 (in [1]; at Angiopoietin-1 receptor; with EA.hy 926) were > 1 µM, 0.0514 µM and 1.11 µM, respectively.

`Fc1ccccc1-c1cn(Cc2ccc(-c3cncnc3)cc2)nn1`: the IC50 against Angiopoietin-1 receptor was 0.00545 µM; in the assay on EA.hy 926, 22.5 µM.

For the molecule `Fc1ccccc1-c1cn(Cc2ccc(-c3cn[nH]c3)cc2)nn1`, the IC50 against Angiopoietin-1 receptor was found to be 0.00546 µM; in the assay with EA.hy 926 it was 19.9 µM.

As to `Cc1ccc(-c2cn(Cc3ccc(-c4cncnc4)cc3)nn2)cc1`, the half-inhibitory concentration (IC50) against Angiopoietin-1 receptor worked out at 0.0257 µM; in the assay with EA.hy 926, 1.01 µM.

`Cn1cc(-c2ccc(Cn3cc(-c4ccc(C(F)(F)F)cc4)nn3)cc2)cn1`: the concentration for half-maximal inhibition (IC50) was > 1 µM in [1] and 0.00911 µM against Angiopoietin-1 receptor.

Take `Cc1ccc(-c2cn(Cc3ccc(-c4cnn(C)c4)cc3)nn2)cc1`: the IC50 on Angiopoietin-1 receptor is 0.0774 µM; with EA.hy 926, 38.1 µM.

Consider `Clc1cccc(-c2cn(Cc3ccc(-c4cncnc4)cc3)nn2)c1`, for which the half-inhibitory concentration (IC50) on Ephrin type-B receptor 4 is > 1 µM; in the assay on EA.hy 926 it was 7.83 µM.

On to `Nc1cccc(-c2cn(Cc3ccc(-c4cncnc4)cc3)nn2)c1`, for which the IC50 at Angiopoietin-1 receptor was 0.21 µM; against Ephrin type-B receptor 4, > 1 µM; with EA.hy 926, 30.2 µM.

Regarding `c1ccc(-c2cn(Cc3ccc(-c4cncnc4)cc3)nn2)cc1`, the half-inhibitory concentration (IC50) in assay [1] was > 1 µM; at Angiopoietin-1 receptor, 0.0519 µM; with EA.hy 926, 35.5 µM.

As for `Cn1cc(-c2ccc(Cn3cc(-c4cccc(C(F)(F)F)c4)nn3)cc2)cn1`, the IC50 was 0.00179 µM against Angiopoietin-1 receptor and 69 µM in the assay on EA.hy 926.

With `CNC(=O)c1cc(Oc2ccc(NC(=O)Nc3ccc(Cl)c(C(F)(F)F)c3)cc2)ccn1` [SORAFENIB], the IC50 is 3.47 µM in the assay with MCF7; 3.88 µM in the assay on A549; 3.32 µM in the assay on A-431; 8.74 µM in the assay with HeLa; 2.52 µM in the assay on LoVo.

As for `FC(F)(F)c1ccc(-c2cn(Cc3ccc(-c4cn[nH]c4)cc3)nn2)cc1`, the figures for the IC50 (in [1]; on Angiopoietin-1 receptor; in the assay with EA.hy 926) were > 1 µM, > 1 µM and 20.9 µM, respectively.

As for `O=C(Nc1cccc(-c2cn(Cc3ccc(-c4cncnc4)cc3)nn2)c1)C1CC1`, the figures for the half-maximal inhibitory concentration (IC50) at Angiopoietin-1 receptor, against Ephrin type-B receptor 4 and with EA.hy 926 were > 1 µM, > 1 µM and 17.3 µM, respectively.

Consider `Cc1cccc(-c2cn(Cc3ccc(-c4cn[nH]c4)cc3)nn2)c1`, for which the IC50 against Angiopoietin-1 receptor was 0.0464 µM; against Ephrin type-B receptor 4, > 1 µM; in the assay on EA.hy 926, 134 µM.

With `Nc1cccc(-c2cn(Cc3ccc(-c4cn[nH]c4)cc3)nn2)c1`, the IC50 in assay [1] is > 1 µM; on Angiopoietin-1 receptor, > 1 µM; on Ephrin type-B receptor 4, > 1 µM; in the assay with EA.hy 926, 251 µM.

Take `Cn1cc(-c2ccc(Cn3cc(-c4ccccc4)nn3)cc2)cn1`: the IC50 at Angiopoietin-1 receptor was > 1 µM; with EA.hy 926, 62.2 µM.
